Values quoted from earlier work as cited in patent US8445528B2, “Dendrimer conjugates” (priority 2008, dated 2013).

Conditions: more cytotoxic than IRINOTECAN

CC[C@@]1(O)C(=O)OCc2c1cc1n(c2=O)Cc2cc3cc(O)ccc3nc2-1 [SN-38, 10-hydroxycamptothecin]
cytotoxicity relative to IRINOTECAN: 1000 fold
